Read-outs that look alike come from different tables or passages of the source.
Assays:
thromboxane synthesis = assay: Thromboxane synthesis in clotting blood (serum TxB2 by radioimmunoassay); assay type: cell-based; settings: human blood clotted 60 min at 37°C
Method: Test compounds were added in a series of concentrations ranging from 10^-7 M to 10^-3 M to samples of blood from healthy human subjects, who had not taken cyclooxygenase inhibitors (acetylsalicylic acid, non-steroidal antiinflammatory agents) for at least two weeks. The blood samples were allowed to clot for 60 min in a bath at 37°C, and then centrifuged at 2500 x g for 10 min. The serum was separated and kept frozen at -20°C for the determination of TxB2 by radioimmunoassay. TxB2 is the stable metabolite into which thromboxane A2 is rapidly converted.

[1] = system: transcellular synthesis of prostacyclin; assay: Transcellular prostacyclin synthesis: PRP layered on acetylsalicylic acid-pretreated endothelial cells (6-keto-prostaglandin F1α by radioimmunoassay); assay type: cell-based, bovine
Method: The effects on the transcellular synthesis of prostacyclin from endoperoxides generated in platelets were assessed by layering platelet rich plasma (PRP), obtained from healthy human subjects as described above, on cultured bovine endothelial cells (5 x 10^5 cells/well). The endothelial cells were pretreated with acetylsalicylic acid (10^-4 M) in order to inhibit the direct synthesis of endoperoxides, and washed twice with Dulbecco's phosphate buffered saline. Then to individual samples of endothelial cells there were added at 37°C while shaking on an oscillating platform, 0.5 ml of PRP samples pretreated with the test compounds in various concentrations, ranging from 10^-7 M to 10 ^-3 M. Collagen (0.5 µg/ml) was then added to each sample. After 2 minutes of contact at 37°C, PRP was removed and centrifuged at 12,000 x g, and the supernatant was frozen and kept at -20°C for the determination of 6-keto-prostaglandin F1α by radioimmunoassay.
6-Keto-prostaglandin F1α is a stable metabolite into which prostacyclin is rapidly converted.

[2] = system: platelet-rich plasma (PRP); assay: Platelet aggregation in platelet-rich plasma (aggregometer, light transmittance); assay type: cell-based; settings: for IC50: Homo sapiens, Platelet, 10 min, 10 min incubation
Method: Platelet aggregation experiments were performed on platelet-rich plasma (PRP) prepared from blood of healthy human subjects, who had not taken cyclooxygenase inhibitors (acetylsalicylic acid, non-steroidal antiinflammatory agents) for at least two weeks. Blood was collected in test tubes containing a 3.2 % sodium citrate solution (1/10 of blood volume) and immediately centrifuged at 150 x g for 15 minutes. Samples of PRP were further centrifuged at 12,000 x g in order to obtain platelet-poor plasma (PPP), used for calibration of light transmittance of the double-channel aggregometer, fixing the transmittance of PRP as 10 % and that of PPP as 90 %. Platelet aggregation in PRP of each subject was tested measuring the percent increase in transmittance under the addition of increasing amounts of sodium arachidonate, in concentrations in the range from 300 to 900 µM, or of collagen, in concentrations in the range from 0.5 to 2.5 µg/ml, or of U-46619, in concentrations in the range from 0.2 to 1.6 µM. […] In this way the threshold concentration, i.e., the concentration inducing a submaximal irreversible aggregation was assessed in each subject with the three agents.
PRP samples of subjects not responding to the maximal concentrations were discarded.

rabbit aortae = assay: Vascular relaxation of precontracted aortic rings in vitro; assay type: cell-based; settings: for EC50: Oryctolagus cuniculus, read-out: calculated EC50
Method: The ability to induce vascular relaxation by acting as a donor of nitric oxide was tested in vitro on rabbit aortae. Rings of aortae were suspended in a Krebs-Henseleit solution at 37°C, submitted to a 1 g tension and connected to a force transducer.

[3] = human PRP on acetylsalicylic acid-treated bovine endothelial cells, collagen 0.5 µg/ml
[4] = rabbit aortic rings contracted with norepinephrine (10^-6 M)

SMILES | effect on thromboxane synthesis (thromboxane synthesis) | production of the prostacyclin metabolite (effect in words) [1, 3] | inhibitory activity in the aggregation induced by collagen ([2]; human PRP, up to 10^-3 M concentrations) | IC50 ([2]; aggregation induced by U-46619 (threshold concentration)) [µM] | IC50 ([2]; aggregation induced by arachidonic acid (threshold concentration)) [µM] | IC50 ([2]; aggregation induced by collagen (threshold concentration)) [µM] | IC50 (thromboxane synthesis; 1 h, read-out: IC50 (inhibit thromboxane synthesis)) [µM] | concentration from which production of the prostacyclin metabolite was increased [1, 3] | production of the prostacyclin metabolite (6-keto-prostaglandin F1α), level reached ([1]; human PRP on acetylsalicylic acid-treated bovine endothelial cells, collagen 0.5 µg/ml, up to) [pg/mL] | level times higher of the amount produced in basal conditions by endothelial cells not submitted to cyclooxygenase inhibition ([1]; relative to basal production of untreated endothelial cells) | EC50 (rabbit aortae; norepinephrine-contracted rabbit aortic rings, methylene blue 10^-5 M in the bath) [µM] | EC50 (rabbit aortae; [4]) [µM] | relaxation in aortic rings (rabbit aortae; aortic rings contracted with 5-hydroxytryptamine) | relaxation in aortic rings (rabbit aortae; aortic rings contracted with U-46619) | concentration inducing a complete relaxation of the aortic ring (rabbit aortae; [4])
O=C(O)Cc1ccc(CCNS(=O)(=O)c2ccc(Cl)cc2)cc1 [daltroban, p-[2-(p-chlorobenzenesulfonamido)ethyl]phenylacetic, reference compound] | did not show any effect | did not stimulate the synthesis of prostacyclin | – | – | – | – | – | – | – | – | – | – | – | – | –
O=C(O)/C=C/c1ccc(Cn2ccnc2)cc1 [ozagrel, (E)-3-[4-(1H-imidazol-1-ylmethyl)-phenyl]-2-propenoic acid, reference compound] | – | – | did not show any significant inhibitory activity | – | – | – | – | – | – | – | – | – | – | – | –
COc1ccc(C(=O)N[C@H]2CC[C@H](O[N+](=O)[O-])CC2)cc1C(=O)NCc1cccnc1 [4-methoxy-N^1-(4-trans-nitrooxycyclohexyl)-N^3-(3-pyridinylmethyl)-1,3-benzenedicarboxamide] | – | markedly increased | – | 33 | 12 | 22 | 18 | 10^-6 M | 800 to 1600 | 8-16 times | 55 | 3.2 | similarly able to produce relaxation | similarly able to produce relaxation | 10^-4 M

Reference: patent EP1270558B1, “"Compound for the treatment of atherosclerotic-thrombotic pathological conditions"” (Casagrande, Cesare, priority 2001, dated 2003)
